Measured values: article PMC12366525, “Characterization of allosteric modulators that disrupt androgen receptor co-activator protein-protein interactions to alter transactivation–Drug leads for metastatic castration resistant prostate cancer” (SLAS discovery : advancing life sciences R & D, 2023)
Where two headings read alike, the source gives them in different places.

Experiments:
Assay type in all cases: cell-based
AR-TIF2 PPI = target: T1, AR-TIF2 PPI (Homo sapiens, UniProt P10275); experiment: AR-TIF2 PPI biosensor (PPIB) HCS assay, disruption of pre-formed AR-TIF2 PPI complexes; conditions: U-2 OS cells, 25 nM DHT 90 min prior to compounds for 3 h
T1 construct: expressed in transfected cells; host or cells: U-2 OS osteosarcoma cells, co-infected with recombinant adenoviruses
T1 sequence (P10275 663-920 limits assumed): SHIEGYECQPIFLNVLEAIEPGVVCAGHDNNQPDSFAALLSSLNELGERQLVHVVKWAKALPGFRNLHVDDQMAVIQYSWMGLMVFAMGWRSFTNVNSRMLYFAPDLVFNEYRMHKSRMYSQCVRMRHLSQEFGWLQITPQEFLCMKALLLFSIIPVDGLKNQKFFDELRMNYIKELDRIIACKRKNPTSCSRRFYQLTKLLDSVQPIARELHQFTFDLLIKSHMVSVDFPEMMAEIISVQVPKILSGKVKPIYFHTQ
Description: Daughter plates containing 2 μL of the serially diluted compounds in DMSO were prepared and replicated from 384-well serial dilution master plates using a Janus MDT platform outfitted with a 384-well transfer head. Aluminum adhesive plate seals were applied, and plates were stored at −20 °C. For bioassay testing, daughter plates were withdrawn from −20 °C storage, thawed to ambient temperature, and centrifuged for 1 min at 100 × g, and plate seals were removed before 38 μL of serum-free media (SFM) was transferred into wells using a Matrix pipettor (ThermoFisher, Waltham, MA), to generate an intermediate stock concentration of validation compounds ranging from 0.977 to 500 μM (5.0% DMSO). Diluted compounds were mixed by repeated aspiration and dispensation using a 384-well P30 dispensing head on the Janus MDT platform and then, 5 μL of diluted compounds was transferred to assay plate wells to provide a final concentration range from 0.0977 to 50 μM (0.5% DMSO).
(§1) The AR-TIF2 PPIB HCS assay was performed in U-2 OS osteosarcoma cells as described previously. Briefly, U-2 OS cells were coinfected with recombinant adenovirus biosensor expression constructs and seeded at 2500 cells per well in 384-well collagen-coated microplates (Greiner BioOne #781956) and plates were incubated overnight at 37°C in 5% CO2 and 95% humidity. […] After the appropriate time, assay plates were fixed by transfer of 50 μL of pre-warmed (37°C) 7.4% formaldehyde and 2 μg/mL Hoechst 33342 in PBS and incubation at room temperature for 30 min. Liquid was aspirated, plates were washed twice with 85 μL PBS, leaving the final wash in the plate. Plates were sealed with adhesive aluminum plate seals, and fluorescent images of three fields of view were acquired in the DAPI (Hoechst stained nuclei), FITC (TIF2-GFP) and Texas Red (AR-RFP) channels on an ImageXpress Micro (IXM) automated HCS platform (Molecular Devices LLC, Sunnyvale, CA) using a 10X Plan Fluor 0.3 NA objective. Images were analyzed using the Translocation Enhanced (TE) image analysis module of the MetaXpress software as described previously.
(§2) In 384-well assays, DMSO minimum (n = 32) and maximum (n = 32) plate control wells were utilized to calculate signal-to-background ratios (S:B) and Z’-factor coefficient assay performance quality control statistics, and to normalize the signals of compound treated wells and to represent 0% and 100% respectively. For the 96-well AR-LBD H^3-DHT radioligand binding assay, eight minimum and maximum plate control wells were utilized to normalize the data. For the PC cell line growth inhibition assays we used the DMSO control data from the T0 and T72 assay plates to assess the dynamic range of the T0 to T72 cell growth, and to calculate S:B ratios and Z’-factor coefficient statistics for the assay signal window (T0 to T72). To normalize the 72 h compound exposure PC growth inhibition data, the signals from the compound treated wells were processed and expressed as% of the T72 DMSO plate controls. IC50 and GI50 values for each of the bioassays were calculated using Graph-Pad Prism 9 software to plot and fit data to curves using the Sigmoidal dose response variable slope equation Y = Bottom + [Top-Bottom]/ [1 + 10^^(LogEC50-X)*HillSlope].

U-2 OS cells = experiment: AR-TIF2 PPIB cell loss (Hoechst stained nuclei); conditions: 4.5 h compound exposure
Description: as §1

22Rv1 cells = experiment: Prostate cancer cell line growth inhibition assay, 22Rv1; conditions: read-out: 22Rv1 GI50 (AR+)
Description: The PC-3, DU-145, LNCaP, C4–2, and 22Rv1 PC cell line growth inhibition assays have been described previously. On day 1, each PC cell line was harvested, counted, and seeded into two 384-well assay plates, a time zero (T0) and a time 72 h (T72) plate. PC cell lines were all seeded at 1000 cells per well in 45 μL of tissue culture media in uncoated white clear bottom 384-well assay plates (VWR, # 82050–076) using a Matrix electronic multichannel pipette (Thermo Fisher Scientific, Waltham, MA) and cultured overnight at 37 °C, 5% CO2, and 95% humidity. On day 2, 25 μL of the Cell Titer Glo (CTG) (Promega Corporation, Madison, WI) detection reagent was dispensed into the wells of the T0 assay plate using a Matrix electronic multichannel pipette, and the RLUs were captured on the SpectraMax M5e (Molecular Devices LLC, Sunnyvale, CA) microtiter plate reader. Also on day 2, 5 μL of compounds were transferred into the test wells of the T72 384-well assay plates which were returned to the incubator for 72 h. Control wells received DMSO alone. On day 5, 25 μL of the CTG detection reagent was dispensed into the wells of the T72 assay plate using a Matrix electronic multichannel pipette, and the RLU’s were captured on the SpectraMax M5e microtiter plate reader platform.
as §2

SMILES	IC50 (AR-TIF2 PPI)	AR-TIF2 PPIB Cell Loss (U-2 OS cells)	GI50 (22Rv1 cells; Homo sapiens, 22Rv1, 72 h)	IC50 (AR-TIF2 PPI; listed as S1-3)	GI50 (22Rv1 cells; 72 h)
Cc1ccccc1-c1cc(O)c2c(c1)CN(c1nc(C(N)=O)cs1)CCO2 [S1–1]	26.6 µM	>100 µM	55.5 µM	–	–
Cc1ccccc1-c1cc(O)c2c(c1)CN(c1nccs1)CCO2 [S1–3]	63.1 µM	>100 µM	–	63 µM	75.2 µM
Cc1c(-c2ccccc2F)[nH]c2ccc(CNC(=O)CCc3cn[nH]c3)cc12 [S3–11]	29.1 µM	>100 µM	15 µM	–	–
Cc1c(-c2ccccc2F)[nH]c2ccc(CNC(=O)CCc3cnccn3)cc12 [S3–12]	26.7 µM	>100 µM	20.5 µM	–	–
CC(=O)NCCC(=O)NCc1ccc2[nH]c(-c3ccccc3F)c(C)c2c1 [S3–13]	41.3 µM	>100 µM	> 100 µM	–	–

The remaining molecules from weak to strong by IC50 (AR-TIF2 PPI), led by results:

IC50 (AR-TIF2 PPI)	AR-TIF2 PPIB Cell Loss (U-2 OS cells)	GI50 (22Rv1 cells; Homo sapiens, 22Rv1, 72 h)	IC50 (AR-TIF2 PPI; listed as S1-3)	GI50 (22Rv1 cells; 72 h)	SMILES
26.2 µM	>100 µM	17.4 µM	–	–	Cc1c(-c2ccc(F)cc2)[nH]c2ccc(CNC(=O)c3ccc(CO)o3)cc12 [S3–15]
18 µM	>100 µM	102 µM	–	–	Cc1c(-c2ccccc2F)[nH]c2ccc(CNC(=O)c3ccc(CO)o3)cc12 [S3–14]
5.8 µM	>100 µM	17.6 µM	–	–	Cc1nsc(NC(=O)N2CCC(Sc3ccccc3C)CC2)n1 [S2–6]
